Legend:
Aminopeptidase B = Aminopeptidase B (Homo sapiens, UniProt Q9H4A4); test: Inhibition of aminopeptidase B (unknown origin)
[1] = target: T1, Bifunctional epoxide hydrolase 2 (Homo sapiens, UniProt P34913); test: Inhibition of sEH (unknown origin)
T1 sequence (P34913 whole entry): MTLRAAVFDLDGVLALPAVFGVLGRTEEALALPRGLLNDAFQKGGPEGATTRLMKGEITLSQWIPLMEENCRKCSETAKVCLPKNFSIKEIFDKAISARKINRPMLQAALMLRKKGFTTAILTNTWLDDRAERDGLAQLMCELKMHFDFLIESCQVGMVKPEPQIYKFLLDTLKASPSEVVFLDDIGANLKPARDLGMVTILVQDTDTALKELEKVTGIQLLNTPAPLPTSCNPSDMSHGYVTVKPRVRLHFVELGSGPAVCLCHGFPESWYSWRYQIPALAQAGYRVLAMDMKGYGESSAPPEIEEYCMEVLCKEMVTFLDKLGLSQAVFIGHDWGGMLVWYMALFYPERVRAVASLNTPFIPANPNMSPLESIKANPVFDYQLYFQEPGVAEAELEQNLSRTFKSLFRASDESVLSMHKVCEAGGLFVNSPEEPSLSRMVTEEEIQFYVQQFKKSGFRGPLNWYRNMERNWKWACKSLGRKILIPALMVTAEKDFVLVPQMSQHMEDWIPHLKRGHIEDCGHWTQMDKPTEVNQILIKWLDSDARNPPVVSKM

[2] = Displacement of (Z)-5-(4-(3-carboxy-3-hydroxyacryloyl)-4-(4-chlorobenzyl)piperidine-1-carbonyl)-2-(6-hydroxy-3-oxo-3H-xanthen-9-yl)benzoic acid from Influenza A virus (A/Viet Nam/1203/2004(H5N1)) recombinant C-terminal 10X-His-tagged polymerase acidic protein (1 to 209 residues) expressed in Escherichia coli BL21 (DE3) after 30 mins by fluorescence polarization assay

Aminopeptidase B, sequence (Q9H4A4 whole entry): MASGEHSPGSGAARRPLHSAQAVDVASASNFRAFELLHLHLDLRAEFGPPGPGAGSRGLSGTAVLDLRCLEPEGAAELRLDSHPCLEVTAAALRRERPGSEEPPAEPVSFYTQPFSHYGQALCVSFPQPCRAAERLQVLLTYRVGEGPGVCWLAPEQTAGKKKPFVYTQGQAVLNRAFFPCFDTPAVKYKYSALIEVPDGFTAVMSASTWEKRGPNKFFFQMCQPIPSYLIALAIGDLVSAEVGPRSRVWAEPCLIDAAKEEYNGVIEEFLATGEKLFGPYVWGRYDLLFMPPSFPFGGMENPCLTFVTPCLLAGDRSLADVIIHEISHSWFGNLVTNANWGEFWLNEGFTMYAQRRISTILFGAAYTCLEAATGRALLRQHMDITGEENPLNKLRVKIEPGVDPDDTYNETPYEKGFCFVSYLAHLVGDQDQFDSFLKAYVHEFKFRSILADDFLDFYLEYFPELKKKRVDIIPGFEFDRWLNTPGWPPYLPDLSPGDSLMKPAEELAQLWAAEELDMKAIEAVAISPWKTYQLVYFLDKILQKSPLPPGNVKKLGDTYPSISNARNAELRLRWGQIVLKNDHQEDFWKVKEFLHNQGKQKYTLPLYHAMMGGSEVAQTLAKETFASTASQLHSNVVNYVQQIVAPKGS

SMILES | IC50 (Aminopeptidase B) | Ki [2] | also measured
CC(C)C[C@H](NC(=O)[C@@H](O)[C@H](N)CC1CCCCC1)C(=O)O | 3500 nM |  | 
O=C(Nc1ccccc1)NC1CCCCC1 |  |  | IC50 [1]: 760 nM
O=C(O)/C(O)=C/C(O)C1(Cc2ccc(Cl)cc2)CCN(Cc2ccccc2)CC1 (stereo not given) |  | 90 nM | 
O=C(O)/C(O)=C/C(O)C1(Cc2ccc(Cl)cc2)CCN(CC2CCCCC2)CC1 (stereo not given) |  | 84 nM | 
CC(C)C[C@H](NC(=O)[C@@H](O)[C@H](N)Cc1ccccc1)C(=O)O [UBENIMEX] | 160000 nM |  | 
